Format in all cases: binding
For data set [1], the target named is DCN1 (DCUND1) protein PONY domain (Homo sapiens (Human), UniProt Q96GG9). Briefly: Off-rate measurement of reversible covalent molecules (jump dilution TR-FRET with Cy5 probe). The note with it: for Category: binding mode category from off-rate assay; for residence time: inverse of rate constant K; for residence time / half-life: jump dilution TR-FRET; for koff: jump dilution, Cy5 covalent probe 150 nM, TR-FRET; for half-life: ln(2)/K.

In the next data set the target is DCN1 protein (Homo sapiens (Human), UniProt Q96GG9). Briefly: Intact Protein MS Analysis with the RapidFire-TOF System (covalent adduct formation). Particulars: MS Emax; 400 nM DCN1, 3 hours at room temperature. In a few lines:
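Tag-cleaved human DCN1 (400 nM) expressed in E. coli, in 25 mM Tris-HCl, 200 mM NaCl, 1 mM DTT, was incubated with 11 compound concentrations for 3 h at room temperature and quenched with 0.2% formic acid. Intact-protein Q-TOF MS with deconvolution detected the compound adduct mass.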

Data set [2] has as its target DCN2 (DCUND2) protein PONY domain (Homo sapiens (Human), UniProt Q6PH85). Kind of data set: Measurement of Kinact/KI in the DCN2 TR-FRET Assay. The note with it: for kinact/KI: read-out: Kinact/KI (converted); for pKi / kinact: time-dependent IC50 over 24 hrs; for kinact: read-out: Kinact (converted). On the procedure:
A TR-FRET Assay was performed to evaluate the ability of the compounds to bind DCN-2.
The time resolved—Forster's resonance energy transfer (TR-FRET) assay was designed following the protocol established in (Scott et al., Nat Chem Biol. 2017 August; 13(8): 850-857). A recombinant form of the DCN2 (DCUND2) protein PONY domain was produced using an E. coli expression system at Viva Biotech China. The DCN2 protein was biotinylated (EZ sulfo-NHS-LC-biotin; Thermofisher) for labeling with 2.5 nM streptavidin terbium (Tb) cryptate in the reaction. The probe was changed to a non-covalent DCN1 inhibitor labeled with carboxyfluorescein (FAM; Zhou et al, Nat Commun. 2017; 8: 1150). Buffer conditions were modified to enhance protein stability by replacing TritonX with 0.05% Tween20 and increasing NaCl to 200 mM. The compounds were screened against 0.31 nM DCN1 and 40 nM FAM-labeled probe in a 40 ul reaction volume. The TR-FRET ratio between Tb-DCN1 and the FAM-labeled probe was measured in a 384-well opti-plate (Perkin Elmer) using a plate reader (BMG) at after treatment with compound (final DMSO concentration of 0.1%). The ratio was normalized to the high (DCN1 and FAM-probe) and low (DCN1 and no probe) controls for a readout of % activity (=100*(x−low)/(high−low)).
The Kinact and KI measurements were taken to allow for continuous reads over 24 hrs. Plates were read every 5 min up to 1 hr, every 15 min up to 5 hr, and every hour up to […]. Kinact and KI were calculated based on the following equations (Krippendorff B F, et al. Mechanism-based inhibition: deriving K(I) and k(inact) directly from time-dependent IC(50) values. J BiomolScreen. 2009; Mons E et al. A Comprehensive Guide for Assessing Covalent Inhibition in Enzymatic Assays Illustrated with Kinetic Simulations. CurrProtoc. 2022) where the KM of the probe against DCN2 is 21.62 nM. The Kinact and KI values could be estimated from the tight curves of the IC50 values over time.

pKi: −log10 of the molar value.

Sequence of DCN1 (DCUND1) protein PONY domain (Q96GG9 60-248): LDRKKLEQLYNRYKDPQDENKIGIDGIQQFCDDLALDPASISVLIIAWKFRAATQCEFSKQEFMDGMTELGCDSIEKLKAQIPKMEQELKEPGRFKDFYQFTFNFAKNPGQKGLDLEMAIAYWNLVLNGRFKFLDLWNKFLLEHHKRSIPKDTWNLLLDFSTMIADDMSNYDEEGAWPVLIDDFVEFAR
Sequence of DCN1 protein (Q96GG9 whole entry): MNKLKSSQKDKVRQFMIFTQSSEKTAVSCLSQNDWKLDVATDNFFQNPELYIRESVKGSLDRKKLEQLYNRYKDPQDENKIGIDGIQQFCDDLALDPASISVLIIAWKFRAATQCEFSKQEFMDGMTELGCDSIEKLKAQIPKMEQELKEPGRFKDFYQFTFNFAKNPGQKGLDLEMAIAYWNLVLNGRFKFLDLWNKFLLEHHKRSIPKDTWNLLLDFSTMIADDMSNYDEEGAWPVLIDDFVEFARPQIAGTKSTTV
Sequence of DCN2 (DCUND2) protein PONY domain (Q6PH85 60-248): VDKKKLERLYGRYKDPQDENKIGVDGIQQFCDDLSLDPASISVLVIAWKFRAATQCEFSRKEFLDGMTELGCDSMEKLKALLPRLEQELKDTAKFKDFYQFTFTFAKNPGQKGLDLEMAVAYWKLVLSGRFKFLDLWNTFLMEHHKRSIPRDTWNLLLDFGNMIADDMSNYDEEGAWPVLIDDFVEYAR

As to `CCN1C(=O)[C@@H](NC(=O)c2cccc(C(F)(F)F)c2)[C@@H](C)c2c(C(=O)N3[C@H](C#N)C[C@H]4C[C@H]43)nn(C3CCOCC3)c21` [Compound I-387], in data set [1], the Category result was “reversible covalent”; the residence time was 144 min; the koff (usually the rate constant with which the complex falls apart) is 0.000116 s⁻¹; the half-life (in general, the time in which the quantity being followed falls by half) was 1.67 h. Further, on DCN1 protein, the “% Adduct Formation” value is “+++ (MS Emax % adduct formation greater than 80.0 and less than or equal to 100.0)”. In data set [2], the kinact/KI is 46700 M⁻¹ s⁻¹; the pKi – broadly, the negative decadic logarithm of the Ki, by convention in mol/L – is 6.80; the kinact (usually the maximal first-order rate at which the target is inactivated) is 0.00727 s⁻¹.
As for `CCN1C(=O)[C@@H](NC(=O)c2cccc(C(F)(F)F)c2)[C@@H](C2CC2)c2c(C(=O)N3[C@H](C#N)C[C@H]4C[C@H]43)nn(C3CCOCC3)c21` [Compound I-256, N-((4S,5S)-3-((1R,3S,5R)-3-cyano-2-azabicyclo[3.1.0]hexane-2-carbonyl)-4-cyclopropyl-7-ethyl-6-oxo-1-(tetrahydro-2H-pyran-4-yl)-4,5,6,7-tetrahydro-1H-pyrazolo[3,4-b]pyridin-5-yl)-3-(trifluoromethyl)benzamide], in data set [1], the Category result is reported as “slow reversible”, the residence time was 219 min, the koff is 7.96e-05 s⁻¹ and the half-life was 2.535 h. Also, at DCN1 protein, the “% Adduct Formation” value was “+++ (MS Emax % adduct formation greater than 80.0 and less than or equal to 100.0)”. Moreover, in data set [2], the kinact/KI was 78300 M⁻¹ s⁻¹, the pKi was 7.00 and the kinact was 0.00783 s⁻¹.
As to `CCN1C(=O)[C@@H](NC(=O)c2cccc(C(F)(F)F)c2)[C@@H](c2ccc(F)cc2)c2c(C(=O)N(C)[C@@H](C#N)CCN(C)C)nn(C3CCOCC3)c21` [Compound I-369], in data set [1], the Category entry is recorded as “fast reversible”, the residence time came to 39.4 min, the koff is 0.000425 s⁻¹ and the half-life came out at 0.455 h. Further, at DCN1 protein, the “% Adduct Formation” value was “+++ (MS Emax % adduct formation greater than 80.0 and less than or equal to 100.0)”. Further, in data set [2], the kinact/KI was 11700 M⁻¹ s⁻¹, the pKi is 8.70 and the kinact is 2.17e-05 s⁻¹.
In the case of `CCN1C(=O)[C@@H](NC(=O)c2cccc(C(F)(F)F)c2)[C@@H](c2ccc(F)cc2)c2c(C(=O)N3CCC[C@H]3C#N)nn(C3CCOCC3)c21` [Compound I-350], in data set [1], the Category entry is reported as “slow reversible”, the residence time stood at 699 min, the koff is 2.64e-05 s⁻¹ and the half-life is 8.07 h. Further, the “% Adduct Formation” value on DCN1 protein is “++ (MS Emax % adduct formation greater than 30.0 and less than or equal to 80.0)”. For the same molecule, in data set [2], the kinact/KI is 45000 M⁻¹ s⁻¹, the pKi is 7.03 and the kinact is 0.00417 s⁻¹.
